Experimental data published in US12582614B2, “Composition for preventing, alleviating or treating sarcopenia, containing D-ribo-2-hexulose as active ingredient” (KYUNGPOOK NATIONAL UNIVERSITY INDUSTRY-ACADEMIC COOPERATION …, priority 2021, dated 2026).

Tests used:
Format in all cases: in vivo, C57BL/6J male mice
[1] = system: aged mice; test: Left hind leg thickness (digital calipers); details: week 12, DRH group vs NC group
Procedure: The thicknesses of left hind legs were measured using Bluetec digital calipers (Korea, BLUETEC, BD500) every 4 weeks during the experiment period, and the leg thickness was divided by the body weight of each mouse in order to minimize differences between individuals (mm/100 g× body weight).

[2] = system: aged mice; test: Weights of quadriceps, anterior tibialis and gastrocnemius tissues; details: per 100 g body weight, DRH group vs NC group
Procedure: Specifically, a negative control group (NC, n=7, American Institute of Nutrition AIN-93G Semisynthetic diet); a D-ribo-2-hexulose-treated group (D-ribo-2-hexulose; DRH, n=7; a portion of cellulose in AIN-93G was replaced with 3% D-ribo-2-hexulose). […] The dose of D-ribo-2-hexulose was set at 3% based on previous animal studies. In the previous studies, the dose of D-ribo-2-hexulose was determined to be 3% in order to investigate a biological effect at a lower dose than the dose. During the experiment, the mice had free access to distilled water, and the food intakes and body weights of the mice were measured weekly, and blood glucose was measured once every 4 weeks. All animal experiments were approved by the Animal Research Ethics Committee of KyungPook National University (Approval Number: KNU-2020-109).

[3] = Liver and erythrocyte H2O2 content and TBARs; details: DRH supplementation; increase in NC vs YC
[4] = system: aged mice; test: Fat and muscle weight
[5] = system: Mitochondrial respiratory chain complexes; test: BN-PAGE of mitochondrial respiratory chain complexes; details: quadriceps mitochondria, vs NC group
Procedure: Mitochondria were isolated from the quadriceps muscle using the Potter-Elvehjem method. To extract respiratory SCs, a sample buffer cocktail was prepared using 8 μL of digitonin (Invitrogen, USA) per 50 μg of protein, 4×5 μL of a sample buffer (Invitrogen, USA) per 50 μg of protein, and 7 μL of water per 50 μg of protein. Thereafter, the solution was mixed with mitochondria. The BN-PAGE run and transfer were performed. An Ox-Phos Rodent WB antibody cocktail (Invitrogen, USA) was reacted at room temperature for 2 hours. Then, a secondary antibody solution Alk-Phos (Invitrogen, USA) was reacted at room temperature for an hour. Immunoreactive bands were developed using chromogen (BCIP/NBT). Then, the bands in a final state were checked.

[6] = system: differentially expressed genes (DEG); test: RT-PCR and Western blotting verification of differentially expressed genes; details: verification of mRNA-seq results
Procedure: After total RNA was isolated, total complementary DNA (cDNA) was synthesized. For real-time PCR analysis, template cDNA was diluted with RNAse-free water and used at a concentration of 25 ng/μL. Then, gene expression was analyzed using a QuantitTeck SYBR Green PCR kit (QIAGEN, Germany).
Each of the reaction solutions consisted of 10 μL of SYBR Green, 2 μL of a template, and 200 μM primers. RNAse-free water was added to a final volume of 20 μL, and reacted at 94° C. for 15 seconds, and then 58° C. and 72° C. for 30 seconds. The reaction solution was reacted 40 times at 65° C. for 30 seconds at 15 seconds per cycle. In this case, by monitoring the fluorescence signal for each cycle and analyzing the resulting threshold cycle (Ct), mRNA expression between the respective experimental groups was quantitatively analyzed using a CFX96 Real-time system (Bio-Rad, USA). […]
The amount of cytoplasmic and membrane proteins was quantified according to the Bradford method. […]

O=C(CO)[C@H](O)[C@H](O)[C@H](O)CO [DRH, D-ribo-2-hexulose]
thicknesses of the left hind legs [1]: significantly increased
weight of the left anterior tibialis [2]: significantly increased
weights of the right and left quadriceps [2]: significantly increased
liver H2O2 content [3]: significantly reduced
ratio of the total weight of muscle tissue to the total weight of adipose tissue ([4]; DRH group vs NC group): significantly increased
total weight of muscle tissue ([4]; DRH group vs NC group): no significant difference
fat weight ([4]; DRH supplementation): reduced
mitochondrial respiratory chain Complex IV [5]: significantly increased
RT-PCR analysis and Western blotting on DEG [6]: consistent with those obtained by mRNA-seq analysis
